# Source: ChEMBL document CHEMBL3797088, “Discovery and structure activity relationship study of novel indazole amide inhibitors for extracellular signal-regulated kinase1/2 (ERK1/2)” (Bioorg Med Chem Lett, 2016)
# Active and inactive are the calls of the source. The rule behind the calls is not given here.
# Key:
# [1] = biological target: Mitogen-activated protein kinase 1 (Homo sapiens, UniProt P28482); test: Inhibition of human recombinant GST-tagged ERK2 expressed in Escherichia coli using ser/thr 3 Peptide as substrate preincubated for 1 hr measured after 1 hr by Z-LYTE assay
# [2] = biological target: Mitogen-activated protein kinase 3 (Homo sapiens, UniProt P27361); test: Inhibition of human recombinant GST-tagged ERK1 expressed in Escherichia coli using ser/thr 3 Peptide as substrate preincubated for 1 hr measured after 1 hr by Z-LYTE assay
# HT-29 = test: Antiproliferative activity against human HT-29 cells harboring B-RAF V600E mutant after 72 hrs by SRB assay; type: functional, cell-based; conditions: HT-29, 72 h
# [3] = biological target: Mitogen-activated protein kinase; ERK1/ERK2 (Homo sapiens) (UniProt P27361+P28482); test: Inhibition of ERK1/ERK2 in human HT-29 cells assessed as reduction in p90RSK phosphorylation after 2 hrs by Western blot analysis; type: cell-based
# [4] = Apparent permeability in human Caco2 cells assessed as Fabs after 95 mins by LC-MS/MS analysis; type: ADME, cell-based; conditions: caco-2, 95 min
# [5] = AUC (0 to 24 hrs) in rat at 10 mg/kg, po; type: ADME, organism-based; design: time < 24 hr, dose 10 mg/kg, route oral; conditions: in vivo
# [6] = biological target: Dual specificity mitogen-activated protein kinase kinase; MEK1/2 (Homo sapiens) (UniProt P36507+Q02750); test: Inhibition of ERK phosphorylation in human HT-29 cells after 2 hrs by Western blot analysis; type: cell-based
# [7] = biological target: Epidermal growth factor receptor (Homo sapiens, UniProt P00533); test: Inhibition of EGFR (unknown origin) by Z-LYTE assay
# [8] = biological target: Tyrosine-protein kinase ABL1 (Homo sapiens, UniProt P00519); test: Inhibition of ABL (unknown origin) by Z-LYTE assay
# [9] = biological target: Proto-oncogene tyrosine-protein kinase receptor Ret (Homo sapiens, UniProt P07949); test: Inhibition of RET (unknown origin) by Z-LYTE assay
# [10] = biological target: Vascular endothelial growth factor receptor 1 (Homo sapiens, UniProt P17948); test: Inhibition of FLT1 (unknown origin) by Z-LYTE assay
# Ephrin type-A receptor 2 = Ephrin type-A receptor 2 (Homo sapiens, UniProt P29317); test: Inhibition of EPHA2 (unknown origin) by Z-LYTE assay
# [11] = biological target: Fibroblast growth factor receptor 1 (Homo sapiens, UniProt P11362); test: Inhibition of FGFR1 (unknown origin) by Z-LYTE assay
# [12] = biological target: Hepatocyte growth factor receptor (Homo sapiens, UniProt P08581); test: Inhibition of c-MET (unknown origin) by Z-LYTE assay
# [13] = biological target: Vascular endothelial growth factor receptor 2 (Homo sapiens, UniProt P35968); test: Inhibition of KDR (unknown origin) by Z-LYTE assay
# [14] = biological target: Receptor tyrosine-protein kinase erbB-2 (Homo sapiens, UniProt P04626); test: Inhibition of ERBB2 (unknown origin) by Z-LYTE assay
# [15] = biological target: ALK tyrosine kinase receptor (Homo sapiens, UniProt Q9UM73); test: Inhibition of ALK (unknown origin) by Z-LYTE assay
# [16] = biological target: Platelet-derived growth factor receptor beta (Homo sapiens, UniProt P09619); test: Inhibition of PDGFRbeta (unknown origin) by Z-LYTE assay
# [17] = biological target: Insulin-like growth factor 1 receptor (Homo sapiens, UniProt P08069); test: Inhibition of IGF1R (unknown origin) by Z-LYTE assay
# [18] = biological target: Proto-oncogene tyrosine-protein kinase Src (Homo sapiens, UniProt P12931); test: Inhibition of c-Src (unknown origin) by Z-LYTE assay
# [19] = AUC (0 to 24 hrs) in mouse at 5 mg/kg, po; type: ADME, organism-based; design: dose 5 mg/kg, time < 24 hr, route oral; conditions: in vivo
# [20] = Oral bioavailability in mouse at 5 mg/kg; type: ADME, organism-based; conditions: in vivo
# [21] = Clearance in mouse at 5 mg/kg, po or 1 mg/kg, iv; type: ADME, organism-based; conditions: in vivo
# Dual specificity mitogen-activated protein kinase kinase; MEK1/2 (Homo sapiens), sequence (P36507 whole entry, looked up): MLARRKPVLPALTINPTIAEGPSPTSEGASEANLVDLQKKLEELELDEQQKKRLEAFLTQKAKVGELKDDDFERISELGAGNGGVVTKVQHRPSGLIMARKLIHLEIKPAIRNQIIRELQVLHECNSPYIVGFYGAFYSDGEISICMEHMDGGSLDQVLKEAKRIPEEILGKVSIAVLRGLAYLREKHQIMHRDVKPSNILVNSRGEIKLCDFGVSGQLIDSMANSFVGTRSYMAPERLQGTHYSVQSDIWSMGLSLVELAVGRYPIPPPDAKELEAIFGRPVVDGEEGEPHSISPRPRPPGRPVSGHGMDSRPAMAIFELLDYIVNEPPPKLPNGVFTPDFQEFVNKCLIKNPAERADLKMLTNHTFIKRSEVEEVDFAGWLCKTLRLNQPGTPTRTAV
# Dual specificity mitogen-activated protein kinase kinase; MEK1/2 (Homo sapiens), sequence (Q02750 whole entry, looked up): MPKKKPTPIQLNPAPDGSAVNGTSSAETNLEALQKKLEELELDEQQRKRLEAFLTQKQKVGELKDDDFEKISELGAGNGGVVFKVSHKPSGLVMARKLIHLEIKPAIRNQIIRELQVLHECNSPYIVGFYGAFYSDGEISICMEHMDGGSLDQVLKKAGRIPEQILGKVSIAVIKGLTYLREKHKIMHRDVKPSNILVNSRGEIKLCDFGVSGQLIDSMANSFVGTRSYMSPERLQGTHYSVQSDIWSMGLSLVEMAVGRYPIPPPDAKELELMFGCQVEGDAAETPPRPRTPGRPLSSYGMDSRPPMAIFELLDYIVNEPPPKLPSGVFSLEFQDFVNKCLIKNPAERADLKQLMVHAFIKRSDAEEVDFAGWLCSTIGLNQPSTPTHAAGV
# Mitogen-activated protein kinase 1, sequence (P28482 whole entry): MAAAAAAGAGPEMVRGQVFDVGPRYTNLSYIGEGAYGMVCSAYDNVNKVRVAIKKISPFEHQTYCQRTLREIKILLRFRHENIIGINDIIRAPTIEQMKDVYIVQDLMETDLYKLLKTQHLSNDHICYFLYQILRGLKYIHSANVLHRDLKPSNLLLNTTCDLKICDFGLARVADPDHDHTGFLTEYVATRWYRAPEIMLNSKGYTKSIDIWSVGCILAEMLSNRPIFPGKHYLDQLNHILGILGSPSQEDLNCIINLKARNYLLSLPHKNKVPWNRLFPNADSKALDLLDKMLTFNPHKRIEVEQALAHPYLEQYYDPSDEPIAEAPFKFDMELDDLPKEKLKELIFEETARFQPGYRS
# Mitogen-activated protein kinase; ERK1/ERK2 (Homo sapiens), sequence (P27361 whole entry, looked up): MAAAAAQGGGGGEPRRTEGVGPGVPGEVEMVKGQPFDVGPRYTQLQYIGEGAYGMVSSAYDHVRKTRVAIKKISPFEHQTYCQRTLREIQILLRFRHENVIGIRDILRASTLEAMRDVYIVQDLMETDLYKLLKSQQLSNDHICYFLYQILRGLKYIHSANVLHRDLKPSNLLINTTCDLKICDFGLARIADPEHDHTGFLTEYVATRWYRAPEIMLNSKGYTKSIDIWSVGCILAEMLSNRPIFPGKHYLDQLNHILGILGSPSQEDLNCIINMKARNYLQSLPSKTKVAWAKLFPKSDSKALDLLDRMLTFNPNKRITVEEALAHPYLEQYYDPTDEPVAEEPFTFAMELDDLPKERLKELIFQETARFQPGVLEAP
# Mitogen-activated protein kinase; ERK1/ERK2 (Homo sapiens), sequence (P28482 whole entry, looked up): as the sequence (P28482 whole entry) above
# Mitogen-activated protein kinase 3, sequence (P27361 whole entry): as the sequence (P27361 whole entry, looked up) above
# Tyrosine-protein kinase ABL1, sequence (P00519 whole entry): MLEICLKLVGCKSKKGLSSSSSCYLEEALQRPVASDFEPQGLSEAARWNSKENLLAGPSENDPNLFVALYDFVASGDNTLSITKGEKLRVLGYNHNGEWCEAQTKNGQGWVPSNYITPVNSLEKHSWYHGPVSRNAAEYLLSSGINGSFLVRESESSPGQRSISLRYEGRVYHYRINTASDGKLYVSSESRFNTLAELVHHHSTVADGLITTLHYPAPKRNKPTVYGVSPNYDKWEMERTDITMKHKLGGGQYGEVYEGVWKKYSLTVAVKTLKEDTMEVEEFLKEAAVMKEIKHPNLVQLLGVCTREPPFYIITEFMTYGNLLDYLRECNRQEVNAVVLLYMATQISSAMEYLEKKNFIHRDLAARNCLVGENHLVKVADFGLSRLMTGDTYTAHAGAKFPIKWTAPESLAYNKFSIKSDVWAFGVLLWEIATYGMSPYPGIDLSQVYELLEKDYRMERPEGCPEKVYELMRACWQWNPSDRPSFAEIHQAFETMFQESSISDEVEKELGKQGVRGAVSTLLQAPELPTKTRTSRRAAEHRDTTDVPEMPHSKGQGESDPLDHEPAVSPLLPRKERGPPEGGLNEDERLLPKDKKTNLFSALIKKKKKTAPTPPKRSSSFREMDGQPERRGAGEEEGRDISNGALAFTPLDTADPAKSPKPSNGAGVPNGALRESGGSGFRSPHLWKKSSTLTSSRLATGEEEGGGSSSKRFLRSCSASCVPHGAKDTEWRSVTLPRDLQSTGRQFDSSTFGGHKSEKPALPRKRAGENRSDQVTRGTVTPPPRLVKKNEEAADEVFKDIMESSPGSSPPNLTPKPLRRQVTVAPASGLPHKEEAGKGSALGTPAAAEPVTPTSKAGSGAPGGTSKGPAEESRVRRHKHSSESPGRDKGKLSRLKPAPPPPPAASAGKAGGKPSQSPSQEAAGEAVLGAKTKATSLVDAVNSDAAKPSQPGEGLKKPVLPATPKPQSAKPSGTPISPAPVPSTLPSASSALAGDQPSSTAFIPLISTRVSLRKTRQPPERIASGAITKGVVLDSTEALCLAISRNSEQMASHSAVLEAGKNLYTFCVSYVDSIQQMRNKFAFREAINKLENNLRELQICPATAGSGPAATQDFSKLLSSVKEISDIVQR
# Proto-oncogene tyrosine-protein kinase receptor Ret, sequence (P07949 whole entry): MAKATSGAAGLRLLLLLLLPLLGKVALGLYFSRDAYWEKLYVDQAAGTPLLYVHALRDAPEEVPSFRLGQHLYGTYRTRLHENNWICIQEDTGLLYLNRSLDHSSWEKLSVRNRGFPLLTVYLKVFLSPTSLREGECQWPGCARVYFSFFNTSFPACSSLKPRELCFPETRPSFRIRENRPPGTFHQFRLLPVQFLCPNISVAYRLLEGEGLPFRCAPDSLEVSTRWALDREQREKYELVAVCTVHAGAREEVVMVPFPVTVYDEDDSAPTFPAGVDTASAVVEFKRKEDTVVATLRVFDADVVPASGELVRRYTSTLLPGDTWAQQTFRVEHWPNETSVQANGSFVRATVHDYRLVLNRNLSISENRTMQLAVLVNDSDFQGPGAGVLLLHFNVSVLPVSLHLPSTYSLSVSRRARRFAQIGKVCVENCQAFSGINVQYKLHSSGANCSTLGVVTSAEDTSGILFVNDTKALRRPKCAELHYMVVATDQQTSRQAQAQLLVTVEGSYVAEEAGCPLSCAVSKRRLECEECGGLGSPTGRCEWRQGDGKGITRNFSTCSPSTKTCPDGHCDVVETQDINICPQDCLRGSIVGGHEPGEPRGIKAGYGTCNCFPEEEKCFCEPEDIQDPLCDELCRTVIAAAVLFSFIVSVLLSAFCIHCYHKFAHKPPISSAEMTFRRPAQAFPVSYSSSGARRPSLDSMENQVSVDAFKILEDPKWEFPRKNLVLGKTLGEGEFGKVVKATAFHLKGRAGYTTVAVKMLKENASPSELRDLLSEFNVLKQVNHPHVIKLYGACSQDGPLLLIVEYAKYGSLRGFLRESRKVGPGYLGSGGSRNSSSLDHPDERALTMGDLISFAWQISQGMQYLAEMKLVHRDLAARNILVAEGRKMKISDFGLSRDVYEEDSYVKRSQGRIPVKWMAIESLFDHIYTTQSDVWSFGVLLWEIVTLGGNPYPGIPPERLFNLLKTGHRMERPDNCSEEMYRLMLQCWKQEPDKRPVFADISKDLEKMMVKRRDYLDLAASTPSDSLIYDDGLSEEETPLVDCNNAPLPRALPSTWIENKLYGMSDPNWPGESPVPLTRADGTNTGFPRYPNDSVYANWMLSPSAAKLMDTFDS
# Proto-oncogene tyrosine-protein kinase Src, sequence (P12931 2-536 limits assumed): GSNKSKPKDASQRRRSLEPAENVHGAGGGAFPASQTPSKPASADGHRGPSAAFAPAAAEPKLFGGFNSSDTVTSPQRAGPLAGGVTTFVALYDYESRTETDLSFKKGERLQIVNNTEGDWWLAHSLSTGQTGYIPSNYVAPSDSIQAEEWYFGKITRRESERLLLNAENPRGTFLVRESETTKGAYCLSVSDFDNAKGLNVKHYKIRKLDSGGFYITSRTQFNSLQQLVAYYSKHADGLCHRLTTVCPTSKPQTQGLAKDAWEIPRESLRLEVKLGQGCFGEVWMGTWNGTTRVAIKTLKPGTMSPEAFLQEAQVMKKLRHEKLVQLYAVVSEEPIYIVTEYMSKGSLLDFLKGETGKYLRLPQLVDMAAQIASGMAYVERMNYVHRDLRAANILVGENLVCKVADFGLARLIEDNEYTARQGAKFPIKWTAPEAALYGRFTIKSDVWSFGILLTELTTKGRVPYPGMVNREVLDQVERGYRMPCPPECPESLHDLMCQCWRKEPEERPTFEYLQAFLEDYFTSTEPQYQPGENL
Structure (SMILES),IC50 [1],IC50 [2],IC50 (HT-29),also measured
O=C(NCCCc1ccccc1)c1ccc2[nH]nc(-c3ccncc3)c2c1,33.8 nM,42.9 nM,4500 nM,–
O=C(NC(CO)c1cccc(Cl)c1)c1ccc2[nH]nc(-c3ccccc3)c2c1 (stereo unspecified),276 nM,–,6000 nM,–
Cc1cc(-c2n[nH]c3ccc(C(=O)N[C@H](C)c4c(Cl)cccc4Cl)cc23)ccn1,632 nM,–,10700 nM,–
O=C(N[C@@H](CO)c1cccc(Cl)c1)c1ccc2[nH]nc(-c3ccncc3)c2c1,219 nM,833 nM,16500 nM,–
Nc1cc(-c2n[nH]c3ccc(C(=O)NC(CO)c4cccc(Cl)c4)cc23)ccn1 (stereo unspecified),15.6 nM,66.9 nM,20900 nM,–
O=C(NCc1c(Cl)cccc1Cl)c1ccc2[nH]nc(-c3ccncc3)c2c1,154 nM,–,8400 nM,–
C[C@@H](NC(=O)c1ccc2[nH]nc(-c3ccncc3)c2c1)c1cccc(Cl)c1,25.8 nM,–,900 nM,inhibition [3]: Dose-dependent effect; Fabs [4]: 100%; AUC(0-t) at 24 h [5]: 56 ng·h/mL; inhibition [6]: inactive
CC(NC(=O)c1ccc2[nH]nc(-c3ccncc3)c2c1)c1cccc(Cl)c1 (stereo unspecified),53.1 nM,154 nM,900 nM,IC50 [7]: > 1000 nM; IC50 [8]: > 1000 nM; IC50 [9]: > 1000 nM; IC50 [10]: > 1000 nM; IC50 (Ephrin type-A receptor 2): > 1000 nM; IC50 [11]: > 1000 nM; IC50 [12]: > 1000 nM; IC50 [13]: > 1000 nM; IC50 [14]: > 1000 nM; IC50 [15]: > 1000 nM; IC50 [16]: > 1000 nM; IC50 [17]: > 1000 nM; IC50 [18]: > 1000 nM
Cc1cc(-c2n[nH]c3ccc(C(=O)NC(C)c4cccc(Cl)c4)cc23)cc(C)n1 (stereo unspecified),110 nM,–,3800 nM,AUC(0-t) at 24 h [19]: 162 ng·h/mL; bioavailability [20]: 8%; clearance [21]: 42 mL/min/kg
O=C(NCc1ccccc1Cl)c1ccc2[nH]nc(-c3ccncc3)c2c1,31.3 nM,46.3 nM,2800 nM,–
CC(C)Nc1cc(-c2c[nH]c(C(=O)N[C@H](CO)c3ccccc3)c2)c(Cl)cn1,15.9 nM,–,1600 nM,–
O=C(NCCc1cccc(Cl)c1)c1ccc2[nH]nc(-c3ccncc3)c2c1,425 nM,–,15300 nM,–
O=C(NCCOc1ccccc1)c1ccc2[nH]nc(-c3ccncc3)c2c1,63.3 nM,–,9100 nM,–
Cc1cc(-c2n[nH]c3ccc(C(=O)NC(C)c4c(Cl)cncc4Cl)cc23)ccn1 (stereo unspecified),16.7 nM,29.3 nM,350 nM,inhibition [3]: Dose-dependent effect; AUC(0-t) at 24 h [19]: 61 ng·h/mL; IC50 [7]: > 1000 nM; IC50 [8]: > 1000 nM; IC50 [9]: > 1000 nM; IC50 [10]: > 1000 nM; IC50 (Ephrin type-A receptor 2): > 1000 nM; IC50 [11]: > 1000 nM; IC50 [12]: > 1000 nM; IC50 [13]: > 1000 nM; IC50 [14]: > 1000 nM; IC50 [15]: > 1000 nM; IC50 [16]: > 1000 nM; bioavailability [20]: 12%; clearance [21]: 163 mL/min/kg; inhibition [6]: inactive; IC50 [17]: > 1000 nM; IC50 [18]: > 1000 nM
O=C(NC(CO)c1cccc(Cl)c1)c1ccc2[nH]nc(C3CCOCC3)c2c1 (stereo unspecified),297 nM,–,11500 nM,–
Cc1cc(-c2n[nH]c3ccc(C(=O)NCc4c(Cl)cnc(Cl)c4Cl)cc23)ccn1,7.9 nM,16.7 nM,1100 nM,–
O=C(NCc1ccc(Cl)c(F)c1Cl)c1ccc2[nH]nc(-c3ccncc3)c2c1,11.9 nM,29.2 nM,1500 nM,–
O=C(NC(CO)c1cc(Cl)cc(Cl)c1)c1ccc2[nH]nc(-c3ccncc3)c2c1 (stereo unspecified),61.1 nM,–,3400 nM,–
CCC(NC(=O)c1ccc2[nH]nc(-c3ccncc3)c2c1)c1cccc(Cl)c1 (stereo unspecified),58.9 nM,78.7 nM,1500 nM,–

Structure (SMILES),IC50 [1],IC50 [2],IC50 (HT-29),also measured
Cc1cc(-c2n[nH]c3ccc(C(=O)NC(CO)c4cccc(Cl)c4)cc23)ccn1 (stereo unspecified),17.9 nM,53.4 nM,2400 nM,–
O=C(NCc1ccnc(Cl)c1)c1ccc2[nH]nc(-c3ccncc3)c2c1,22.5 nM,26.4 nM,9400 nM,–
Cc1cc(-c2n[nH]c3ccc(C(=O)N[C@@H](C)c4c(Cl)cccc4Cl)cc23)ccn1,9.5 nM,19.4 nM,480 nM,–
C[C@H](NC(=O)c1ccc2[nH]nc(-c3ccncc3)c2c1)c1cccc(Cl)c1,469 nM,–,7500 nM,–
CC(CNC(=O)c1ccc2[nH]nc(-c3ccncc3)c2c1)OCc1ccccc1 (stereo unspecified),88.7 nM,–,3700 nM,–
CC(C)CC(NC(=O)c1ccc2[nH]nc(-c3ccncc3)c2c1)c1cccc(Cl)c1 (stereo unspecified),> 2000 nM,–,7100 nM,–
Cc1cc(-c2n[nH]c3ccc(C(=O)NC(C)c4ccncc4)cc23)ccn1 (stereo unspecified),226 nM,–,10400 nM,–
O=C(NCCc1ccccc1)c1ccc2[nH]nc(-c3ccncc3)c2c1,19.4 nM,38.7 nM,3300 nM,–
O=C(NCc1cccc(Cl)c1)c1ccc2[nH]nc(-c3ccncc3)c2c1,12.6 nM,74.2 nM,2300 nM,–
CC(NC(=O)c1ccc2[nH]nc(-c3ccncc3)c2c1)c1ccccc1Cl (stereo unspecified),16.7 nM,35.9 nM,3500 nM,–
O=C(NCc1c(Cl)cncc1Cl)c1ccc2[nH]nc(-c3ccncc3)c2c1,9.3 nM,55.5 nM,6100 nM,Fabs [4]: 99%
CC(CNC(=O)c1ccc2[nH]nc(-c3ccncc3)c2c1)Oc1ccccc1 (stereo unspecified),38.6 nM,128 nM,6000 nM,–
Cc1cc(-c2n[nH]c3ccc(C(=O)NC(C)c4c(Cl)cnc(Cl)c4Cl)cc23)ccn1 (stereo unspecified),13.2 nM,22.2 nM,713 nM,inhibition [3]: Dose-dependent effect; inhibition [6]: inactive
O=C(NC(CO)c1cccc(Cl)c1)c1ccc2[nH]nc(-c3ccc(O)c(F)c3)c2c1 (stereo unspecified),32.9 nM,111 nM,2500 nM,–
CC(NC(=O)c1ccc2[nH]nc(-c3cc(F)c(O)c(F)c3)c2c1)c1cccc(Cl)c1 (stereo unspecified),22.4 nM,32.3 nM,3300 nM,–
O=C(N[C@H](CO)c1cccc(Cl)c1)c1ccc2[nH]nc(-c3ccncc3)c2c1,7 nM,26.3 nM,1900 nM,–
O=C(NC(CO)c1cccc(Cl)c1)c1ccc2[nH]nc(-c3ccncc3)c2c1 (stereo unspecified),24.1 nM,72.4 nM,5500 nM,Fabs [4]: 69%
O=C(NCc1ccccc1)c1ccc2[nH]nc(-c3ccncc3)c2c1,50.6 nM,106 nM,13300 nM,–
O=C(NCCNc1ccccc1)c1ccc2[nH]nc(-c3ccncc3)c2c1,139 nM,–,6700 nM,–
